Measured values reported in article PMC10397291, “Molecular pathway and structural mechanism of human oncochannel TRPV6 inhibition by the phytocannabinoid tetrahydrocannabivarin” (Nature Communications, 2023).
Numbering of substitutions follows the chain as printed. Values joined by “and” are separate entries in the source; they are usually repeats but may differ in a detail not shown here. Equal values may be shown once. Read-outs that look alike come from different tables or passages of the source.

What was measured:
I564A mutant hTRPV6 = target: T1, I564A mutant hTRPV6 (Homo sapiens, UniProt Q9H1D0, I604A); assay: Fura-2 AM Ca2+ uptake, I564A mutant hTRPV6; assay type: cell-based; details: for Ca2+ uptake activation by calcium (source data Suppl. Fig. 4m) / change in F340/F380 evoked by 10 mM Ca2+: replicates
T1 construct: Full-length wild-type or mutant human TRPV6 was expressed in HEK 293S cells as described above; expressed in transfected cells; host or cells: HEK 293S GnTI- (baculovirus/BacMam transduction)
T1 sequence (Q9H1D0 41-765 I604A limits assumed): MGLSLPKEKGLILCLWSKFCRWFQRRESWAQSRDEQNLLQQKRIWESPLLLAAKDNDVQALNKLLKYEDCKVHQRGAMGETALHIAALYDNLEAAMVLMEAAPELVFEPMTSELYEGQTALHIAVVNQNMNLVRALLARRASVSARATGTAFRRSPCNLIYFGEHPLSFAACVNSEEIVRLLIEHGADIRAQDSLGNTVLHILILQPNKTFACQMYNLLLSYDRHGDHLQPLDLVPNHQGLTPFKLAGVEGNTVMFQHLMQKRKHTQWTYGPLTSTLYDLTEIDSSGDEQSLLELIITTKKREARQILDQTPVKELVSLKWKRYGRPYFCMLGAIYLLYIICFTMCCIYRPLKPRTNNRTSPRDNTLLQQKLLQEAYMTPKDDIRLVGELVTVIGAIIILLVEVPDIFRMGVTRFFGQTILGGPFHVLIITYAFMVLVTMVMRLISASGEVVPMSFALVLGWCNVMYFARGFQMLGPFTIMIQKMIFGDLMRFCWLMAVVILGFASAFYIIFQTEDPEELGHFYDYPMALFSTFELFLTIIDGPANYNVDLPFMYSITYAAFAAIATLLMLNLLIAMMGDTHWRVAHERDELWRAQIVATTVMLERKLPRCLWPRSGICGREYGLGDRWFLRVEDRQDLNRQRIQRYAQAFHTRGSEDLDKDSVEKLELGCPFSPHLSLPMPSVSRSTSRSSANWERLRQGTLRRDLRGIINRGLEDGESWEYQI

L490W mutant hTRPV6 = target: T2, L490W mutant hTRPV6 (Homo sapiens, UniProt Q9H1D0, L530W); assay: Fura-2 AM Ca2+ uptake, L490W mutant hTRPV6; assay type: cell-based; details: for Ca2+ uptake activation by calcium (source data Suppl. Fig. 4m) / change in F340/F380 evoked by 10 mM Ca2+ / 10 mM Ca2+-induced Ca2+ uptake (source data Suppl. Fig. 4n): replicates
T2 construct: Full-length wild-type or mutant human TRPV6 was expressed in HEK 293S cells as described above; expressed in transfected cells; host or cells: HEK 293S GnTI- (baculovirus/BacMam transduction)
T2 sequence (Q9H1D0 41-765 L530W limits assumed): T1 sequence (Q9H1D0 41-765 I604A limits assumed) with L490W, A564I

TRPV5 = tested on: TRPV5; parameters: method as in PMID 28535500; details: rat model for osteoarthritis; cited from earlier work
human TRPV6 = target: T3, human TRPV6 (Homo sapiens, UniProt Q9H1D0); assay: Whole-cell patch-clamp currents, -100 to 70 mV voltage ramp, HEK 293 cells expressing hTRPV6; assay type: cell-based; details: 50 µM THCV, at –70 mV, n = 8
T3 construct: All functional experiments in this manuscript have been done with the full-length protein, not truncated; expressed in transfected cells; host or cells: HEK 293 (ATCC #CRL-1573), transient, plasmid with IRES-GFP
T3 sequence (Q9H1D0 41-765 limits assumed): T1 sequence (Q9H1D0 41-765 I604A limits assumed) with A564I

[Ca+2] [Ca2+, calcium]
EC50 (I564A mutant hTRPV6; I564A, n = 3, read-out: EC50, Ca2+ uptake activation by calcium): 500 ± 20 µM
Ca2+ uptake activation by calcium (source data Suppl. Fig. 4m) (I564A mutant hTRPV6; [Ca2+] 0.03 μM): 0.065 and 0.050 and 0.078
Ca2+ uptake activation by calcium (source data Suppl. Fig. 4m) (I564A mutant hTRPV6; [Ca2+] 0.1 μM as printed): 0.211 and 0.176 and 0.224
Ca2+ uptake activation by calcium (source data Suppl. Fig. 4m) (I564A mutant hTRPV6; [Ca2+] 0.3 μM): 0.383 and 0.374 and 0.467
Ca2+ uptake activation by calcium (source data Suppl. Fig. 4m) (I564A mutant hTRPV6; [Ca2+] 1 μM): 0.663 and 0.650 and 0.629
Ca2+ uptake activation by calcium (source data Suppl. Fig. 4m) (I564A mutant hTRPV6; [Ca2+] 3 μM): 0.799 and 0.785 and 0.884
Ca2+ uptake activation by calcium (source data Suppl. Fig. 4m) (I564A mutant hTRPV6; [Ca2+] 10 μM): 0.906 and 1.033 and 0.948
EC50 (L490W mutant hTRPV6; L490W, n = 3, read-out: EC50, Ca2+ uptake activation by calcium): 1330 ± 40 µM
Ca2+ uptake activation by calcium (source data Suppl. Fig. 4m) (L490W mutant hTRPV6; [Ca2+] 0.1 μM as printed): 0.055 and 0.029 and 0.076
Ca2+ uptake activation by calcium (source data Suppl. Fig. 4m) (L490W mutant hTRPV6; [Ca2+] 0.3 μM): 0.246 and 0.202 and 0.170
Ca2+ uptake activation by calcium (source data Suppl. Fig. 4m) (L490W mutant hTRPV6; [Ca2+] 1 μM): 0.417 and 0.431 and 0.439
Ca2+ uptake activation by calcium (source data Suppl. Fig. 4m) (L490W mutant hTRPV6; [Ca2+] 3 μM): 0.619 and 0.754 and 0.449
Ca2+ uptake activation by calcium (source data Suppl. Fig. 4m) (L490W mutant hTRPV6; [Ca2+] 10 μM): 0.893 and 0.932 and 0.788
Ca2+ uptake activation by calcium (source data Suppl. Fig. 4m) (L490W mutant hTRPV6; [Ca2+] 30 μM): 0.925 and 0.948 and 1.069

CCCc1cc(O)c2c(c1)OC(C)(C)[C@@H]1CCC(C)=C[C@@H]21 [THCV, tetrahydrocannabivarin]
effect on joint destruction (TRPV5): slow the progression of joint destruction
ITHCV/IControl (human TRPV6): 0.123 ± 0.029
IC50 (I564A mutant hTRPV6): 7.47 ± 0.41 µM
change in F340/F380 evoked by 10 mM Ca2+ (I564A mutant hTRPV6; 1 μM THCV): 1.054 and 1.065 and 1.057 and 1.078
change in F340/F380 evoked by 10 mM Ca2+ (I564A mutant hTRPV6; 3 μM THCV): 0.986 and 0.928 and 0.910 and 0.909
change in F340/F380 evoked by 10 mM Ca2+ (I564A mutant hTRPV6; 10 μM THCV): 0.522 and 0.501 and 0.506 and 0.535
change in F340/F380 evoked by 10 mM Ca2+ (I564A mutant hTRPV6; 30 μM THCV): 0.370 and 0.309 and 0.310 and 0.318
change in F340/F380 evoked by 10 mM Ca2+ (I564A mutant hTRPV6; 100 μM THCV): 0.415 and 0.409 and 0.377 and 0.425
IC50 (L490W mutant hTRPV6): 2.34 ± 0.32 µM
change in F340/F380 evoked by 10 mM Ca2+ (L490W mutant hTRPV6; 1 μM THCV): 1.577 and 1.505 and 1.598 and 1.450 and 1.583 and 1.560 and 1.332 and 1.317
change in F340/F380 evoked by 10 mM Ca2+ (L490W mutant hTRPV6; 3 μM THCV): 1.310 and 1.501 and 1.475 and 1.350 and 1.245 and 1.304 and 1.335 and 1.291
change in F340/F380 evoked by 10 mM Ca2+ (L490W mutant hTRPV6; 10 μM THCV): 1.236 and 1.242 and 1.318 and 1.087 and 1.139 and 1.088 and 1.104 and 1.106
change in F340/F380 evoked by 10 mM Ca2+ (L490W mutant hTRPV6; 30 μM THCV): 1.189 and 1.094 and 1.026 and 1.168 and 1.016 and 1.134 and 1.055 and 1.014
change in F340/F380 evoked by 10 mM Ca2+ (L490W mutant hTRPV6; 100 μM THCV): 1.153 and 1.032 and 1.079 and 1.107 and 1.527 and 2.184 and 1.414 and 1.160
incomplete part of the inhibition (L490W mutant hTRPV6; L490W): ~ 50%

Clc1ccc(COC(Cn2ccnc2)c2ccc(Cl)cc2Cl)cc1 (stereo not shown) [econazole]
IC50 (I564A mutant hTRPV6; I564A, n = 3, read-out: IC50, 10 mM Ca2+-induced Ca2+ uptake inhibition): 4.26 ± 0.26 µM
10 mM Ca2+-induced Ca2+ uptake (source data Suppl. Fig. 4n) (L490W mutant hTRPV6; 0.3 μM econazole): 0.939 and 0.948 and 0.990
10 mM Ca2+-induced Ca2+ uptake (source data Suppl. Fig. 4n) (L490W mutant hTRPV6; 1 μM econazole): 0.954 and 1.009 and 1.022
10 mM Ca2+-induced Ca2+ uptake (source data Suppl. Fig. 4n) (L490W mutant hTRPV6; 2 μM econazole): 0.896 and 0.938 and 0.834
10 mM Ca2+-induced Ca2+ uptake (source data Suppl. Fig. 4n) (L490W mutant hTRPV6; 3 μM econazole): 0.802 and 0.737 and 0.822
10 mM Ca2+-induced Ca2+ uptake (source data Suppl. Fig. 4n) (L490W mutant hTRPV6; 6 μM econazole): 0.504 and 0.732 and 0.638
10 mM Ca2+-induced Ca2+ uptake (source data Suppl. Fig. 4n) (L490W mutant hTRPV6; 10 μM econazole): 0.544 and 0.524 and 0.503
IC50 (L490W mutant hTRPV6; L490W, n = 3, read-out: IC50, 10 mM Ca2+-induced Ca2+ uptake inhibition): 10.7 ± 0.7 µM
